Test results taken from the NIST ThermoML archive (doi:10.1016/j.jct.2019.03.001).
Numbers after ± are expanded uncertainties.

Assay: refractive index (Na D-line) (dimensionless)
Settings: 293.15 K; 101.33 kPa; Liquid; Standard Abbe refractometry

SMILES: CCCCO [butan-1-ol]
- refractive index: 1.3993 ± 0.0007
